{
  "source": "patent US20230132667A1",
  "about": "“DRUG-LIKE MOLECULES AND METHODS FOR THE THERAPEUTIC TARGETING OF VIRAL RNA STRUCTURES” (UNIVERSITY OF WASHINGTON, priority 2020, published 2023)",
  "key": {"[1]": {"test_system": "HIV TAR", "assay": "Single point ligand-detected NMR relaxation assay in low salt buffer (stage 1)", "assay_type": "binding, HIV-1", "conditions": "100 μM small molecule in low salt buffer, 10 μM RNA", "excerpt": "(§1) For initial screening and hit identification, a relaxation edited ligand-detect method is used to detect binding under low salt conditions. These initial conditions are chosen to facilitate the discovery of even low affinity compounds with favorable chemical characteristics. Binding compounds are identified through changes in peak height when comparing spectra for RNA-free and RNA-bound ligand (FIG. 8). The change in peak height is proportional to the increase in ligand line width, compared to the free small molecule, which occurs upon binding to the larger biomolecule. This NMR method is agnostic to biomolecular target, as it only depends on the longer rotational correlation time (Tc) of the small molecule bound in a complex with a much larger biomolecular target, which has a much […] correlation time; other NMR methods (e.g., STD) can be used as well.\n(§2) Stage 1. […] The free ligand linewidths of compounds dissolved at concentration of 100 μM were quantified and compared to the ligand linewidths observed after addition of 10 μM RNA target. […]\n(§3) Small molecule hit identification and tiered approach to ligand-detected NMR screening. In order to identify small molecules that bind to RNA and quantify the strength of the interaction, a tiered approach to NMR screening involving both ligand- and target-detected NMR experiments was used. […]"}, "[2]": {"biological_target": "HIV TAR", "assay": "2-aminopurine (2AP) fluorescence binding assay", "set-up": "species or system HIV-1", "conditions": "2AP-labeled HIV TAR, excess tRNA; single binding event; read-out: affinity by fitting Equation 1", "protocol": "The fourth stage in the screening cascade quantifies binding using an orthogonal biophysical method.\nTo quantify binding of the compounds to HIV TAR, a 2-amino purine method was used. In this assay, U25 on HIV TAR was substituted with 2-aminopurine and binding assays were conducted on a Horiba Tau fluorometer.\n2-AP binding assays. Fluorescence intensity binding assays were conducted using a method based on the incorporation of a single fluorescent base analogue (2-amino-purine, 2AP) in place of U25 for HIV TAR, and by monitoring changes in the reporter emission fluorescence intensity at 362 nm upon small molecule titration. Each experiment was collected in duplicate with 50 nM 2AP-TAR titrated with 5 mL of ligand stock solutions prepared by serial dilution. Methods were followed with 250×fold excess yeast tRNA added to the buffer as a competitor to reduce non-specific binding. Data were collected on a Horiba FL3-21tau Fluorescence Spectrophotometer, exported to Graphpad Prism v.8.1.1 and fit to Equation 1.\nwhere Y is the measured fluorescence at 362 nm, Yi is fluorescence of the fully bound target, Yo is the fluorescence of the unbound RNA, Rt is total RNA concentration, Lt is total ligand concentration and Kd is the binding affinity."}, "[3]": {"test_system": "pre-miR-21", "assay": "Single point ligand-detected NMR relaxation assay in low salt buffer (stage 1)", "assay_type": "binding", "conditions": "100 μM small molecule in low salt buffer, 10 μM RNA", "excerpt": "as §1, §2, §3"}, "[4]": {"test_system": "HIV TAR", "assay": "Target-detected NMR (TOCSY, 1D imino spectra; stage 3)", "assay_type": "binding, HIV-1", "conditions": "chemical shift changes, TOCSY / 1D 1H imino spectra", "method": "Stage 3. The third stage in the screening cascade involves monitoring changes in the NMR spectra of the RNA target to identity where on the target the compound binds and examine the structural characteristics of the interaction. This step is conducted in the same […] buffer used for screening, prepared either in 95% H2O/5% D2O (water buffer) or 99.99% D2O (D2O buffer) to monitor different classes of proton resonances (FIGS. 10A and 10B). Uniform labeling of bases with ^13C and ^15N can also be performed, but this is relatively expensive.\nTarget detect NMR assays to measure RNA-ligand interactions. Transcribed RNA sequences (at natural isotopic abundance, along with ^15N/^13C enriched or selectively labeled ^2H samples) are snap-cooled in 250-500 μL NMR buffer (50 mM d9 bis-Tris pH 6.5, 50 mM NaCl) by heating to 95° C. for 4 min then placed at −20° C. until frozen. All ligand stocks were dissolved in 10-20 mM H2O, D2O or DMSO depending on ligand solubility. […] Ligand interactions are detected by changes in chemical shift through a series of NMR experiments, including but not limited to 1D ^1H and 2D ^1H-^1H TOCSY, ^1H-^1H NOESY, ^1H-^1H EXSY, ^15N-^1H HSQC, and ^13C-^1H HSQC experiments, which are used to map the binding site of the ligand on the RNA. […]"}, "[5]": {"test_system": "Tat-dependent reactivation", "conditions": "cited from earlier work"}},
  "note": "Non-standard residues stand in square brackets, D forms with d. Agb = N=C(N)NCC[C@H](N)C(=O)O; Dab = NCC[C@H](N)C(=O)O",
  "data": [
    {"molecule": "CN(C)C(=O)c1cc2cnc(Nc3ccc(N4CCNCC4)cn3)nc2n1C1CCCC1", "note": "[Ribociclib]", "values": [
      {"measurement": "single point binding response to HIV TAR", "setting": "[1]", "value": "binding responses"},
      {"measurement": "Kd", "setting": "[2]", "value": "215 ± 56", "unit": "nM"},
      {"measurement": "single point binding response to pre-miR-21", "setting": "[3]", "value": "binding responses"},
      {"measurement": "binding to HIV TAR by target-detected NMR (qualitative)", "setting": "[4]", "value": "high nM binding"}
    ]},
    {"molecule": "cyclo(P(dab)VRTRKGRRI(NOR)Ip) (cyclo(P[Dab]VRTRKGRRI[Agb]I[dP])) [JB181]", "values": [
      {"measurement": "inhibition of Tat-dependent reactivation in cells", "setting": "[5]", "value": "only moderately inhibits"}
    ]}
  ]
}
